{"source": "patent US6737383B1", "about": "“Herbicidal oxadiazolidines” (priority 1999, dated 2004)", "key": {"sugar beet": {"tested_on": "sugar beet", "assay": "Test B pre/postemergence sugar beet", "type": "in vivo, Beta vulgaris", "conditions": "for Sugarbeets plant response rating: scale of 0 to 10 where 0 is no effect and 10 is complete control", "in_short": "(§1)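 Response is a visual 0-to-10 score relative to untreated plants, where 0 means no effect and 10 means complete control, taken twelve to sixteen days after application. Treatments went onto soil at planting and onto foliage of 1- to 4-leaf plants, using a surfactant-containing non-phytotoxic solvent.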"}, "surinam grass": {"tested_on": "surinam grass", "assay": "Test B pre/postemergence surinam grass", "type": "in vivo, Brachiaria decumbens", "conditions": "for B. signalgrass plant response rating: scale of 0 to 10 where 0 is no effect and 10 is complete control", "in_short": "as §1"}, "velvetleaf": {"tested_on": "velvetleaf", "assay": "Test B pre/postemergence velvetleaf", "type": "in vivo, Abutilon theophrasti", "conditions": "for Velvetleaf plant response rating: scale of 0 to 10 where 0 is no effect and 10 is complete control", "in_short": "as §1"}, "bamyardgrass": {"tested_on": "bamyardgrass", "assay": "Test B flood test barnyardgrass", "type": "in vivo, Echinochloa crus-galli", "in_short": "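Each value is a visual injury score relative to controls, with 10 meaning complete control and 0 no effect. Evaluation took place twelve to sixteen days after the 2-leaf-stage plants were treated and kept in the greenhouse.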"}, "morningglory": {"tested_on": "morningglory", "assay": "Test B pre/postemergence morningglory", "type": "in vivo, Ipomoea hederacea", "conditions": "for Morningglory plant response rating: scale of 0 to 10 where 0 is no effect and 10 is complete control", "in_short": "as §1"}, "blackgrass": {"tested_on": "blackgrass", "assay": "Test B pre/postemergence blackgrass", "type": "in vivo, Alopecurus myosuroides", "conditions": "for Blackgrass plant response rating: scale of 0 to 10 where 0 is no effect and 10 is complete control", "in_short": "as §1"}, "wild oat": {"tested_on": "wild oat", "assay": "Test B pre/postemergence wild oat", "type": "in vivo, Avena fatua", "conditions": "for Wild oats plant response rating: scale of 0 to 10 where 0 is no effect and 10 is complete control", "in_short": "as §1"}, "purple nutsedge": {"tested_on": "purple nutsedge", "assay": "Test B pre/postemergence purple nutsedge", "type": "in vivo, Cyperus rotundus", "conditions": "for Nutsedge plant response rating: scale of 0 to 10 where 0 is no effect and 10 is complete control", "in_short": "as §1"}, "[1]": {"conditions": "Preemergence, Rate 62 g/ha, scale 0 to 10 (0 no effect, 10 complete control)"}, "[2]": {"conditions": "Rate 500 g/ha, Postemergence, scale 0 to 10, 0 no effect, 10 complete control"}, "[3]": {"conditions": "Postemergence, Rate 125 g/ha, scale 0 to 10, 0 is no effect, 10 is complete control"}, "[4]": {"conditions": "Postemergence, Rate 250 g/ha, scale 0 to 10, 0 is no effect, 10 is complete control"}}, "data": [{"compound": "CC1CC1n1c(=O)on(C(=O)N(c2ccc(F)cc2F)C(C)C)c1=O", "note": "(centres unmarked) [Compound 372]", "values": [{"measurement": "Plant response rating, Sugarbeets", "setting": "sugar beet; [1]", "result": 2}, {"measurement": "Sugarbeets plant response rating (0 to 10 scale)", "setting": "sugar beet; Preemergence, Rate 125 g/ha", "result": 4}, {"measurement": "Sugarbeets plant response rating", "setting": "sugar beet; Preemergence, Rate 250 g/ha", "result": 10}, {"measurement": "Sugarbeets plant response rating", "setting": "sugar beet; Preemergence, Rate 500 g/ha", "result": 10}, {"measurement": "Sugarbeets plant response rating", "setting": "sugar beet; Rate 62 g/ha, Postemergence", "result": 0}, {"measurement": "Plant response rating, Sugarbeets", "setting": "sugar beet; [2]", "result": 8}, {"measurement": "Plant response rating, B. signalgrass", "setting": "surinam grass; [3]", "result": 2}, {"measurement": "Plant response rating, B. signalgrass", "setting": "surinam grass; [4]", "result": 4}, {"measurement": "Plant response rating, B. signalgrass", "setting": "surinam grass; [1]", "result": 0}, {"measurement": "B. signalgrass plant response rating (0 to 10 scale, 0 is no effect, 10 is complete control)", "setting": "surinam grass; Preemergence, Rate 125 g/ha", "result": 4}, {"measurement": "B. signalgrass plant response rating", "setting": "surinam grass; Preemergence, Rate 250 g/ha", "result": 6}, {"measurement": "B. signalgrass plant response rating", "setting": "surinam grass; Preemergence, Rate 500 g/ha", "result": 8}, {"measurement": "B. signalgrass plant response rating", "setting": "surinam grass; Rate 62 g/ha, Postemergence", "result": 0}, {"measurement": "Plant response rating, B. signalgrass", "setting": "surinam grass; [2]", "result": 7}, {"measurement": "Plant response rating, Velvetleaf", "setting": "velvetleaf; [3]", "result": 0}, {"measurement": "Plant response rating, Velvetleaf", "setting": "velvetleaf; [4]", "result": 2}, {"measurement": "Plant response rating, Velvetleaf", "setting": "velvetleaf; [1]", "result": 3}, {"measurement": "Velvetleaf plant response rating (0 to 10 scale)", "setting": "velvetleaf; Preemergence, Rate 125 g/ha", "result": 5}, {"measurement": "Velvetleaf plant response rating", "setting": "velvetleaf; Preemergence, Rate 250 g/ha", "result": 6}, {"measurement": "Velvetleaf plant response rating", "setting": "velvetleaf; Preemergence, Rate 500 g/ha", "result": 7}, {"measurement": "Velvetleaf plant response rating", "setting": "velvetleaf; Rate 62 g/ha, Postemergence", "result": 0}, {"measurement": "Plant response rating, Velvetleaf", "setting": "velvetleaf; [2]", "result": 2}, {"measurement": "Plant response rating, Barnyardgrass", "setting": "bamyardgrass; Postemergence (flood test), Rate 125 g/ha, scale 0 to 10, 0 is no effect, 10 is complete control", "result": 0}, {"measurement": "Barnyardgrass plant response rating", "setting": "bamyardgrass; Rate 62 g/ha, Postemergence (flood test species), scale of 0 to 10 where 0 is no effect and 10 is complete control", "result": 0}, {"measurement": "Plant response rating, Barnyardgrass (0 to 10 scale, 0 is no effect, 10 is complete control)", "setting": "bamyardgrass; Rate 62 g/ha, flood test species, Pre-emergence, visual evaluation after twelve to sixteen days", "result": 0}, {"measurement": "Barnyardgrass plant response rating (0 to 10 scale, 0 is no effect, 10 is complete control)", "setting": "bamyardgrass; Rate 125 g/ha, under heading Pre-emergence, flood test species, visual evaluation after twelve to sixteen days", "result": 0}, {"measurement": "Barnyardgrass plant response rating", "setting": "bamyardgrass; Rate 250 g/ha, Pre-emergence, flood-test species, scale 0 to 10, 0 is no effect, 10 is complete control", "result": 0}, {"measurement": "Plant response rating, Barnyardgrass", "setting": "bamyardgrass; Rate 500 g/ha, listed under Postemergence (flood test species), scale 0 to 10, 0 no effect, 10 complete control", "result": 6}, {"measurement": "Barnyardgrass plant response rating", "setting": "bamyardgrass; Rate 500 g/ha, Pre-emergence, flood test species, scale 0 to 10 (0 no effect, 10 complete control)", "result": 0}, {"measurement": "Plant response rating, Barnyardgrass", "setting": "bamyardgrass; flood test species, listed under Postemergence, Rate 250 g/ha, scale 0 to 10, 0 is no effect, 10 is complete control", "result": 4}, {"measurement": "Plant response rating, Morningglory", "setting": "morningglory; [3]", "result": 7}, {"measurement": "Plant response rating, Morningglory", "setting": "morningglory; [4]", "result": 7}, {"measurement": "Plant response rating, Morningglory", "setting": "morningglory; [1]", "result": 0}, {"measurement": "Morningglory plant response rating (0 to 10 scale)", "setting": "morningglory; Preemergence, Rate 125 g/ha", "result": 0}, {"measurement": "Morningglory plant response rating", "setting": "morningglory; Preemergence, Rate 250 g/ha", "result": 2}, {"measurement": "Morningglory plant response rating", "setting": "morningglory; Preemergence, Rate 500 g/ha", "result": 3}, {"measurement": "Morningglory plant response rating", "setting": "morningglory; Rate 62 g/ha, Postemergence", "result": 5}, {"measurement": "Plant response rating, Morningglory", "setting": "morningglory; [2]", "result": 10}, {"measurement": "Plant response rating, Blackgrass", "setting": "blackgrass; [3]", "result": 4}, {"measurement": "Plant response rating, Blackgrass", "setting": "blackgrass; [4]", "result": 7}, {"measurement": "Plant response rating, Blackgrass", "setting": "blackgrass; [1]", "result": 5}, {"measurement": "Blackgrass plant response rating (0 to 10 scale)", "setting": "blackgrass; Preemergence, Rate 125 g/ha", "result": 6}, {"measurement": "Blackgrass plant response rating", "setting": "blackgrass; Preemergence, Rate 250 g/ha", "result": 10}, {"measurement": "Blackgrass plant response rating", "setting": "blackgrass; Preemergence, Rate 500 g/ha", "result": 10}, {"measurement": "Blackgrass plant response rating", "setting": "blackgrass; Rate 62 g/ha, Postemergence", "result": 4}, {"measurement": "Plant response rating, Blackgrass", "setting": "blackgrass; [2]", "result": 10}, {"measurement": "Plant response rating, Wild oats", "setting": "wild oat; [3]", "result": 4}, {"measurement": "Plant response rating, Wild oats", "setting": "wild oat; [4]", "result": 5}, {"measurement": "Plant response rating, Wild oats", "setting": "wild oat; [1]", "result": 4}, {"measurement": "Wild oats plant response rating (0 to 10 scale)", "setting": "wild oat; Preemergence, Rate 125 g/ha", "result": 7}, {"measurement": "Wild oats plant response rating", "setting": "wild oat; Preemergence, Rate 250 g/ha", "result": 9}, {"measurement": "Wild oats plant response rating", "setting": "wild oat; Preemergence, Rate 500 g/ha", "result": 10}, {"measurement": "Wild oats plant response rating", "setting": "wild oat; Rate 62 g/ha, Postemergence", "result": 2}, {"measurement": "Plant response rating, Wild oats", "setting": "wild oat; [2]", "result": 8}, {"measurement": "Plant response rating, Nutsedge", "setting": "purple nutsedge; [3]", "result": 0}, {"measurement": "Plant response rating, Nutsedge", "setting": "purple nutsedge; [4]", "result": 0}, {"measurement": "Plant response rating, Nutsedge", "setting": "purple nutsedge; [1]", "result": 0}, {"measurement": "Nutsedge plant response rating (0 to 10 scale)", "setting": "purple nutsedge; Preemergence, Rate 125 g/ha", "result": 0}, {"measurement": "Nutsedge plant response rating", "setting": "purple nutsedge; Preemergence, Rate 250 g/ha", "result": 0}, {"measurement": "Nutsedge plant response rating", "setting": "purple nutsedge; Preemergence, Rate 500 g/ha", "result": 10}, {"measurement": "Nutsedge plant response rating", "setting": "purple nutsedge; Rate 62 g/ha, Postemergence", "result": 0}, {"measurement": "Plant response rating, Nutsedge", "setting": "purple nutsedge; [2]", "result": 0}]}]}
